Reference: ChEMBL document CHEMBL4130634, “Discovery of Reversible DNA Methyltransferase and Lysine Methyltransferase G9a Inhibitors with Antitumoral in Vivo Efficacy” (J Med Chem, 2018)

Tests used:
[1] = target: T1, Histone-lysine N-methyltransferase EHMT2 (Homo sapiens, UniProt Q96KQ7); experiment: Inhibition of human G9a using biotinylated-H3K9 peptide as substrate after 1 hr in presence of SAM by TR-FRET assay
T1 sequence (Q96KQ7 whole entry): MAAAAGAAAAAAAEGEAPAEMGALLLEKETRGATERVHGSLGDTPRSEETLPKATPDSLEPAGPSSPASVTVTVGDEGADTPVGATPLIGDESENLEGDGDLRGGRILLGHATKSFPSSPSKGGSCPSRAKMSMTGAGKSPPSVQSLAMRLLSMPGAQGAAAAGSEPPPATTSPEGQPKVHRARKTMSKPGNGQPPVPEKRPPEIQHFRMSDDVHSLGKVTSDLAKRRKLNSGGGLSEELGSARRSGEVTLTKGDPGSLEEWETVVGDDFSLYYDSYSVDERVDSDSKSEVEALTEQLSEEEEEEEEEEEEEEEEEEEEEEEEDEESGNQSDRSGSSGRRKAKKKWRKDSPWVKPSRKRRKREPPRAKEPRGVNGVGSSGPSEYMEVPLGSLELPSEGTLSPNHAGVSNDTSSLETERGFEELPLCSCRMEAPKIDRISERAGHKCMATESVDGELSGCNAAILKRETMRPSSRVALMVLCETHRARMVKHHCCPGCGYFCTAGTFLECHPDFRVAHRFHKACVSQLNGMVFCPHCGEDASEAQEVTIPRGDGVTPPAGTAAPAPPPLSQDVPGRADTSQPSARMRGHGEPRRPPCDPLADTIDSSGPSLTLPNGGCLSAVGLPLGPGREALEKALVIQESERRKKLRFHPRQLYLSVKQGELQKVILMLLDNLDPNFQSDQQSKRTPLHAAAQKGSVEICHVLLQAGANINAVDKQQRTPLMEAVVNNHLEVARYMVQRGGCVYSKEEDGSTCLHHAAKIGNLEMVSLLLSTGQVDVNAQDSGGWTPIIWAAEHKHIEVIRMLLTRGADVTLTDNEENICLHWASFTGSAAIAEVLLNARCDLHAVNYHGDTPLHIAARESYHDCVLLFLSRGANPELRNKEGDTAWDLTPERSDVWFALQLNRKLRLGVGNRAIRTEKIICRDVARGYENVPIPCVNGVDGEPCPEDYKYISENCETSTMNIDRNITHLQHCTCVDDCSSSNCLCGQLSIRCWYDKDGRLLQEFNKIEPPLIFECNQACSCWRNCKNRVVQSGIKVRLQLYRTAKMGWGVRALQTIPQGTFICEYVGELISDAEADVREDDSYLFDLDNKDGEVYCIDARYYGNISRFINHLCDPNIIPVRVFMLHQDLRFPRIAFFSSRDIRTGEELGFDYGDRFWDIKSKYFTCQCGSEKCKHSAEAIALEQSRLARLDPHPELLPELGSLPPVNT

[2] = target: DNA (cytosine-5)-methyltransferase 1 (Homo sapiens, UniProt P26358); experiment: Inhibition of human DNMT1 using polydeoxyinosine polydeoxycytosine DNA as substrate after 15 mins in presence of SAM by TR-FRET assay
DNA (cytosine-5)-methyltransferase 1, sequence (P26358 whole entry): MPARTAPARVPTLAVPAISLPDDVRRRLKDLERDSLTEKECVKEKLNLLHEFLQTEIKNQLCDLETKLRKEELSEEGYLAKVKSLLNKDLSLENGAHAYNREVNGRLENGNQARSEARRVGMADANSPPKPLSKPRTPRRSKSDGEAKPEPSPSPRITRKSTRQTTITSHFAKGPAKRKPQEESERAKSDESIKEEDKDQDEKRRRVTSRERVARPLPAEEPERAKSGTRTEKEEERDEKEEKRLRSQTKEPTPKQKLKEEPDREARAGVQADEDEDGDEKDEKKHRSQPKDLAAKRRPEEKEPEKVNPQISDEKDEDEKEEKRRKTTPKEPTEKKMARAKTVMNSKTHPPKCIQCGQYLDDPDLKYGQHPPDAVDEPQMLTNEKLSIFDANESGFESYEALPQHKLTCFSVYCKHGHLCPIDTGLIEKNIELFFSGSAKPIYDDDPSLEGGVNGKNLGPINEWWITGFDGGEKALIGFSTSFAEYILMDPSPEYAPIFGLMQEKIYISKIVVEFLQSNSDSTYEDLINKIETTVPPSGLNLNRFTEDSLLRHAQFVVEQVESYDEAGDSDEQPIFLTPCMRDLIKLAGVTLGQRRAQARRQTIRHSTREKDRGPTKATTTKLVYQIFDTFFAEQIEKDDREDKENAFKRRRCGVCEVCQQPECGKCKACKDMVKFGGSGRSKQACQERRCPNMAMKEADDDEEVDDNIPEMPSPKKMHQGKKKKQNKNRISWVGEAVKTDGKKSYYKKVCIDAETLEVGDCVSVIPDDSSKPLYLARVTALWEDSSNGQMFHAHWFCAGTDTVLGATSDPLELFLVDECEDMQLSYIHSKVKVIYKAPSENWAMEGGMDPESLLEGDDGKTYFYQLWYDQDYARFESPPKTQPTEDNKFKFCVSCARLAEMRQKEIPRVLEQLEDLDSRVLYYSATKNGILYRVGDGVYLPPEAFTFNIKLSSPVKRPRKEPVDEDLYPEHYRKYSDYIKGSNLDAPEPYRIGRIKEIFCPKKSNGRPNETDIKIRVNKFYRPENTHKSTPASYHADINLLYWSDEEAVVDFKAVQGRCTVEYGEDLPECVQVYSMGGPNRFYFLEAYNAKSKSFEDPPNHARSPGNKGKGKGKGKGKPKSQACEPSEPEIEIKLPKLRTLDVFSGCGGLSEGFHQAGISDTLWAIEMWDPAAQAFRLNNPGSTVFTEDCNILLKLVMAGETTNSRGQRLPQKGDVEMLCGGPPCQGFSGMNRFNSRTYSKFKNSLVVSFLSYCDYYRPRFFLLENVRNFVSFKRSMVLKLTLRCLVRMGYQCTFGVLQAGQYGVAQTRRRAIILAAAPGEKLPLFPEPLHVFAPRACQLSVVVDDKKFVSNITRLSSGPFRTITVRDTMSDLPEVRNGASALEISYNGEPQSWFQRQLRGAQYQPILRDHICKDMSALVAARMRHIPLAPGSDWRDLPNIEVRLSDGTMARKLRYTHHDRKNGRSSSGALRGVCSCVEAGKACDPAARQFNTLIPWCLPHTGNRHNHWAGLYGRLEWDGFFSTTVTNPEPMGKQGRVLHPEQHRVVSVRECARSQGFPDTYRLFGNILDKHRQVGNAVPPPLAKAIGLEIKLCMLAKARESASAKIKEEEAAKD

[3] = Permeability of the compound at 50 uM after 18 hrs by PAMPA; type: ADME; conditions: read-out: permeability
[4] = Growth inhibition of human CEMO1 cells after 48 hrs by MTS assay; type: functional
[5] = Growth inhibition of human LAL-CUN-2 cells at 1 uM after 48 hrs by MTS assay relative to control; type: functional; conditions: read-out: GI
OCI-Ly3 [6] = experiment: Growth inhibition of human OCI-LY3 cells after 48 hrs by MTS assay; type: functional; conditions: OCI-Ly3, 48 h
OCI-Ly10 [7] = experiment: Growth inhibition of human OCI-LY10 cells after 48 hrs by MTS assay; type: functional; conditions: OCI-Ly10, 48 h
MV4-11 = experiment: Growth inhibition of human MV4-11 cells after 48 hrs by MTS assay; type: functional; conditions: MV4-11, 48 h
THLE-2 = experiment: Growth inhibition of human THLE2 cells after 72 hrs by MTS assay; type: cell-based; conditions: thle-2, 72 h
CYP1A2 = target: T2, CYP1A2 (Homo sapiens, UniProt P05177); experiment: Inhibition of CYP1A2 in human liver microsomes at 10 uM after 10 mins in presence of NADPH by LC-MS/MS analysis relative to control; type: ADME
T2 sequence (P05177 whole entry): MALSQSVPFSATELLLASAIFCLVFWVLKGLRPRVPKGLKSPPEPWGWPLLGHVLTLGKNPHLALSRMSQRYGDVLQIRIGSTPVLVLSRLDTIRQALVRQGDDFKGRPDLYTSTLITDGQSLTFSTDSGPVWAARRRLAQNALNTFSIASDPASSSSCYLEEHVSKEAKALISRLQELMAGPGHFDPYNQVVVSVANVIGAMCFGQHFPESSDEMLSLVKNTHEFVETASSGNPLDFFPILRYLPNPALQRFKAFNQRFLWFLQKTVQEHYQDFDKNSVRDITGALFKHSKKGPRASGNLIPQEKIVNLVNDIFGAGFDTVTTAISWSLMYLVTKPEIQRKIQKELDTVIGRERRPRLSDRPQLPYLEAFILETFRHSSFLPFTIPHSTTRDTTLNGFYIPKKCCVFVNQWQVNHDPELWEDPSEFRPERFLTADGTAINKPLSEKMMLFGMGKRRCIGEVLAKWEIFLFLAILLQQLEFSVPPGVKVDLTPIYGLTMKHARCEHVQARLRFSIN

CYP2C9 = CYP2C9 (Homo sapiens, UniProt P11712); experiment: Inhibition of CYP2C9 in human liver microsomes at 10 uM after 10 mins in presence of NADPH by LC-MS/MS analysis relative to control; type: ADME
CYP2C9, sequence (P11712 whole entry): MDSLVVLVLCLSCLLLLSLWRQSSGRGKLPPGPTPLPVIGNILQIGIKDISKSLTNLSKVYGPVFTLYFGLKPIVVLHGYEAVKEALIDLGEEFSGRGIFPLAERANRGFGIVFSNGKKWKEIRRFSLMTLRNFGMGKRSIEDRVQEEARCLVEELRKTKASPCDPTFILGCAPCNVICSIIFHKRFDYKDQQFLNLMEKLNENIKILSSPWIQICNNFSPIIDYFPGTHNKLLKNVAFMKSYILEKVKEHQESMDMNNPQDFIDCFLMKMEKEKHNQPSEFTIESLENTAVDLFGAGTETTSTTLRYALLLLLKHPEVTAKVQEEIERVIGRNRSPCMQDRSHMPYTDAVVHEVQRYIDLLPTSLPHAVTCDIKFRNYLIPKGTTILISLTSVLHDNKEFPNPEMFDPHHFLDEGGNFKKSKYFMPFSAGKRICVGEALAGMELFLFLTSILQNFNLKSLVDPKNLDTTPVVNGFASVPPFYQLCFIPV

CYP2C19 = CYP2C19 (Homo sapiens, UniProt P33261); experiment: Inhibition of CYP2C19 in human liver microsomes at 10 uM after 10 mins in presence of NADPH by LC-MS/MS analysis relative to control; type: ADME
CYP2C19, sequence (P33261 whole entry): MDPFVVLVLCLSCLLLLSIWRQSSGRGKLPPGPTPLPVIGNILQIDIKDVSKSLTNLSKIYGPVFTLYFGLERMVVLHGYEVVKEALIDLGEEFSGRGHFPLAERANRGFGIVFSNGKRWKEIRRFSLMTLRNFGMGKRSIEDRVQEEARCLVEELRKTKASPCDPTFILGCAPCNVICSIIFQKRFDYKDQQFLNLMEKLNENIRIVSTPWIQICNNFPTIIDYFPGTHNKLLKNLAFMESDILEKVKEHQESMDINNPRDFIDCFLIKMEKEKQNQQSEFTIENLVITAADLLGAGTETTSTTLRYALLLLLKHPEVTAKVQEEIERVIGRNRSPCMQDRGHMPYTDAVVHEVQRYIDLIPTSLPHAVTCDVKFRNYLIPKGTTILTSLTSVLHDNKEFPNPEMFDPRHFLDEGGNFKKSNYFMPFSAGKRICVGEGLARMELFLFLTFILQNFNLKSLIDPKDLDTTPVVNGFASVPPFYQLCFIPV

CYP2D6 = CYP2D6 (Homo sapiens, UniProt P10635); experiment: Inhibition of CYP2D6 in human liver microsomes at 10 uM after 10 mins in presence of NADPH by LC-MS/MS analysis relative to control; type: ADME
CYP2D6, sequence (P10635 whole entry): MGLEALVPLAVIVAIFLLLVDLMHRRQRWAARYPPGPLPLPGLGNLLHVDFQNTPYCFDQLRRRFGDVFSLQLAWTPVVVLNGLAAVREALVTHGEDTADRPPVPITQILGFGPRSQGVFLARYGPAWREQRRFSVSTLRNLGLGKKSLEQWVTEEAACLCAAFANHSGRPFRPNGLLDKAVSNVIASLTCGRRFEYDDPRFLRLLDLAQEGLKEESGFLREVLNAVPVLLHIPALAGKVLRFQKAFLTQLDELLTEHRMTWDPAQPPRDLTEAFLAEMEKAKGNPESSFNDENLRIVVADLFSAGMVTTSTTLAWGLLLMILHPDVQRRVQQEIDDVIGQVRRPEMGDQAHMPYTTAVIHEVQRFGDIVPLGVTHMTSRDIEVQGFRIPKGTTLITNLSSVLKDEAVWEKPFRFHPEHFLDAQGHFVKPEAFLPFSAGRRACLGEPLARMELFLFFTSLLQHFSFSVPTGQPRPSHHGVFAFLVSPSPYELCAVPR

CYP3A4 = CYP3A4 (Homo sapiens, UniProt P08684); experiment: Inhibition of CYP3A4 in human liver microsomes at 10 uM after 10 mins in presence of NADPH by LC-MS/MS analysis relative to control; type: ADME
CYP3A4, sequence (P08684 whole entry): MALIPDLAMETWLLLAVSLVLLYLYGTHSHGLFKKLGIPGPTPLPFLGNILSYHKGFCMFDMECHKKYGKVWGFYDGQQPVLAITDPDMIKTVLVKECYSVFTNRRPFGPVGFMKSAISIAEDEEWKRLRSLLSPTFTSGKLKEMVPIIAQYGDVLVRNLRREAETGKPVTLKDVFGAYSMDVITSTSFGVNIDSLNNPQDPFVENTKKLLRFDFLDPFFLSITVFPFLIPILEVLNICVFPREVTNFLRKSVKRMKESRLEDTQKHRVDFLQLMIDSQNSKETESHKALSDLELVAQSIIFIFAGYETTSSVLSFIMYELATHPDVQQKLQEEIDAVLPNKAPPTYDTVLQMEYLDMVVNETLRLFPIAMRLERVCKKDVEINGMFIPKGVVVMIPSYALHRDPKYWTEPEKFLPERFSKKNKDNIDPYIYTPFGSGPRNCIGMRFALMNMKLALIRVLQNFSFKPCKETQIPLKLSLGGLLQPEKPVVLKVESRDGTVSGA

[8] = Metabolic stability in human liver microsomes assessed as parent compound remaining at 1 uM preincubated for 10 mins followed by NADP addition after 20 mins by LC-MS/MS analysis; type: ADME, microsome; conditions: microsomes, 20 min, 1 µM
[9] = Half life in human liver microsomes at 1 uM preincubated for 10 mins followed by NADP addition after 20 mins by LC-MS/MS analysis; type: ADME, microsome; conditions: microsomes, 20 min, 1 µM
[10] = Metabolic stability in mouse liver microsomes assessed as parent compound remaining at 1 uM preincubated for 10 mins followed by NADP addition after 20 mins by LC-MS/MS analysis; type: ADME, microsome; conditions: read-out: Stability
[11] = Half life in mouse liver microsomes at 1 uM preincubated for 10 mins followed by NADP addition after 20 mins by LC-MS/MS analysis; type: ADME, microsome
[12] = Growth inhibition of human LAL-CUN-2 cells after 48 hrs by MTS assay; type: functional
[13] = Growth inhibition of human LAL-CUN-2 cells at 10 uM after 48 hrs by MTS assay relative to control; type: functional; conditions: read-out: GI
[14] = Growth inhibition of human CEMO1 cells at 10 uM after 48 hrs by MTS assay relative to control; type: functional; conditions: read-out: GI
[15] = Growth inhibition of human CEMO1 cells at 1 uM after 48 hrs by MTS assay relative to control; type: functional; conditions: read-out: GI
OCI-Ly3 [16] = experiment: Growth inhibition of human OCI-LY3 cells at 1 uM after 48 hrs by MTS assay relative to control; type: functional; conditions: OCI-Ly3, 48 h, read-out: GI
OCI-Ly10 [17] = experiment: Growth inhibition of human OCI-LY10 cells at 1 uM after 48 hrs by MTS assay relative to control; type: functional; conditions: OCI-Ly10, 48 h, read-out: GI

Row | Structure (SMILES) | IC50 [1] [nM] | IC50 [2] [nM] | Papp at 18 h, 50 µM [3] [×10⁻⁶ cm/s] | GI50 [4] [nM] | inhibition of growth at 1 µM [5] [%] | GI50 (OCI-Ly3 [6]) [nM] | GI50 (OCI-Ly10 [7]) [nM] | GI50 (MV4-11) [nM] | LC50 (THLE-2) [nM] | further results
1 | COc1cc2c(NC3CCN(C)CC3)cc(-c3ccccc3)nc2cc1OCCCN1CCCC1 | 15 | 1050 | 1.69 | 658 | 7 | 717 | 420 | 2600 | 5620 | –
2 | COc1cc2c(NC3CCN(C(C)C)CC3)cc(-c3ccc(C)o3)nc2cc1OCCCN1CCCC1 | 3 | 231 | 2.58 | 247 | – | 898 | 792 | 649 | 1340 | inhibition at 10 min, 10 µM (CYP1A2): 4.3%; inhibition at 10 min, 10 µM (CYP2C9): 6.1%; inhibition at 10 min, 10 µM (CYP2C19): 0%; inhibition at 10 min, 10 µM (CYP2D6): 11.4%; inhibition at 10 min, 10 µM (CYP3A4): 0%; Stability [8]: 64%; t1/2 [9]: 102 min; remaining at 20 min, 1 µM [10]: 36.9%; half-life at 1 µM [11]: 18 min
3 | COc1cc2c(NC3CCNCC3)cc(-c3ccc(C)o3)nc2cc1OCCCN1CCCC1 | 6 | 137 | 0.2 | 1980 | – | 1270 | > 4000 | – | 8850 | GI50 [12]: > 5000 nM
4 | CCc1ccc(-c2cc(NC3CCN(C4CC4)CC3)c3cc(OC)c(OCCCN4CCCC4)cc3n2)o1 | 24 | 274 | 5.56 | 917 | – | 1560 | 236 | 3510 | 703 | –
5 | COc1cc2c(NC3CCN(C)CC3)cc(C3=CCCCC3)nc2cc1OCCCN1CCCC1 | 6 | 494 | 2.09 | 1180 | – | – | – | – | 7580 | GI50 [12]: 4290 nM
6 | COc1cc2c(NC3CCN(C)CC3)cc(-c3ccoc3)nc2cc1OCCCN1CCCC1 | 7 | 978 | 0.22 | 4560 | – | > 4000 | 386 | – | 22300 | inhibition of growth at 10 µM [13]: 54%
7 | COc1cc2c(NC3CCN(C)CC3)cc(C)nc2cc1OCCCN1CCCC1 | 6 | 929 | – | – | – | – | – | – | – | inhibition of growth at 10 µM [14]: 14%
8 | COc1cc2c(NC3CCN(C)CC3)cc(-c3ccc(C)[nH]3)nc2cc1OCCCN1CCCC1 | 0.5 | 232 | – | 1650 | 12 | 896 | 915 | – | 7680 | –
9 | COc1cc2c(NC3CCN(C)CC3)cc(N3CCN(C)CC3)nc2cc1OCCCN1CCCC1 | 42 | 945 | – | – | – | – | – | – | – | inhibition of growth at 10 µM [14]: 14%
10 | COc1cc2c(NC3CCN(C)CC3)cc(-c3cccnc3)nc2cc1OCCCN1CCCC1 | 40 | 1410 | 0.22 | – | 16 | – | – | – | – | inhibition of growth at 1 µM [15]: 0%; inhibition of growth at 1 µM (OCI-Ly3 [16]): 12%; inhibition of growth at 1 µM (OCI-Ly10 [17]): 17%
